Data: PMC3896336, “Discovery of a Novel Target for the Dysglycemic Chromogranin A Fragment Pancreastatin: Interaction with the Chaperone GRP78 to Influence Metabolism” (PLoS ONE, 2014)
Entries after “also recorded” stand apart in the source; their conditions may differ. Where no end group is shown, it is not given here.

Tests used:
GRP78 (HSPA5, BIP) = test: Ligand affinity isolation of PST binding protein from mouse liver membranes (biotinylated peptide as bait, streptavidin agarose, SDS-PAGE, LC-MS/MS); conditions: control ligand affinity experiment, immobilized biotinylated catestatin (human CHGA352–372), liver homogenate; results not shown
db/db mice = system: db/db mice; set-up: method as in PMID 16931765; conditions: ref [38]; cited from earlier work
[1] = system: GRP78 protein expression, HepG2 hepatocytes; test: GRP78 protein expression by anti-GRP78 immunoblot in hepatocytes; type: cell-based, human; conditions: UPR activation by tunicamycin 5 µg/mL or thapsigargin 0.3 µM; Fig. 6C
Procedure: (§1) Figure 6 Role of the gluconeogenic/glycogenolytic enzyme G6Pase: Response to PST, GRP78, and inhibition of GRP78's ATPase enzymatic activity. (A) G6Pase expression, PST, and GRP78. Human HepG2 hepatocytes were transfected with G6P-ase→luciferase, along with pCMV-GRP78 or an empty vector (pCMV promoter without insert). 5 hrs after transfection, cells were treated with PST (100 nM) itself (versus mock), or by UPR activation (tunicamycin, 5 µg/mL; or thapsigargin, 0.3 µM). Cells were harvested at 18–20 hrs to measure luciferase activity and protein. (B) G6Pase expression during ATPase enzymatic activity inhibition of GRP78. Human HepG2 hepatocytes were transfected as in (A), and 5 hrs later were treated with the GRP78 ATPase inhibitors VER-155008 (1 µM), ADP (10 µM), or PST (100 nM). Cells were harvested at 18–20 hrs to measure luciferase activity and protein. (C) GRP78 expression: Visualization by immunoblot. Changes in GRP78 expression are shown by anti-GRP78 immunoblot (control: anti-actin), during either UPR activation (by thapsigargin 0.3 µM or tunicamycin 5 µg/mL), or exogenous over-expression (transfection of pCMV-GRP78).

[2] = system: human G6P-ase promoter-luciferase reporter, HepG2 hepatocytes; test: G6Pase promoter-luciferase reporter activity in HepG2 hepatocytes; type: cell-based; conditions: for effect on reduction of G6Pase promoter activity by GRP78 over-expression: PST 100 nM, HepG2 with pCMV-GRP78, Fig. 6B; for effect on reduction of G6Pase promoter activity by GRP78 over-expression / basal G6Pase-luciferase promoter activity with GRP78 ATPase inhibitor: VER-155008 1 µM or ADP 10 µM; for basal G6Pase-luciferase promoter activity with GRP78 ATPase inhibitor: HepG2, Fig. 6B
Procedure: The human G6P-ase promoter-luciferase reporter plasmid has been described. The GRP78 (BIP) promoter-luciferase reporter was a gift from Bruce M. Spiegelman (Harvard Medical School). The pCMV promoter-driven human GRP78 (HSPA5) expression plasmid was from Origene <www.origene.com/>. pSV-Beta-Gal (a transfection efficiency control plasmid, in which the SV40 early promoter drives expression of beta-galactosidase) was obtained from Promega <www.promega.com>.
Cells were plated on 24 well tissue culture plates the day before transfection. 0.5 to 1.0 µg of total DNA per well was used for transfection with Transfectin (BioRad). In some experiments, pSV-Beta-Gal (Promega; in which the SV40 early promoter drives expression of beta-galactosidase) was co-transfected as a transfection efficiency control. After 5 hrs supernatants were removed and fresh media containing different compounds as mentioned in the respective figures were added. 18 hrs after transfection, supernatants were removed and cells were lysed in passive lysis buffer (Promega) and the luciferase and beta-galactosidase activity were measured. Luciferase activity was normalized by beta-galactosidase as well as cellular protein, determined by dye-binding (coomassie G-250; BioRad).
Figure 5 PST acts on both uptake and mobilization steps for glucose: Effects on cellular glucose metabolism and insulin action. (A) PST and glucose uptake. Mouse 3T3-L1 cells were induced to differentiate into adipocytes, and 7–10 days post-differentiation glucose uptake was measured by incubating cells with 2-deoxy-[^3H]-glucose in the presence or absence of PST (100 nM), insulin (100 nM), or insulin plus PST (100 nM each). (B) Glucose mobilization and PST: Effects on expression of the gluconeogenic/glycogenolytic enzyme G6Pase (glucose-6-phosphatase). Human HepG2 hepatocytes were transfected with a glucose-6-phosphatase (G6P-ase)→luciferase reporter plasmid along with a beta gal reporter plasmid as mentioned in the experimental procedures, and 5 hrs after transfection cells were treated with PST (100 nM), insulin (100 nM), or both insulin and PST (100 nM each). Cells were harvested at 18–20 hrs after transfection to measure luciferase activity, beta gal activity and protein.
as §1

cellular glucose uptake = conditions: naturally occurring human variant; ref [14]; cited from earlier work
From the text: The activity of PST as a regulatory gastroenteropancreatic peptide has been established in the light of a variety of biological effects in a number of tissues [6]–[9], including its role in modulation of energy metabolism, with a general counter-regulatory effect to insulin. […] Metabolic effects of PST have been c ...

With catestatin the “pull down of GRP78” value (GRP78 (HSPA5, BIP)) was “did not pull down the GRP78 protein”.
For `O=C(O)CCCc1ccccc1` [4-phenylbutyric acid (PBA), 4-phenylbutyric acid], the “ER stress, glucose homeostasis and insulin sensitivity” value (db/db mice) is listed as “reduced ER stress, with restored glucose homeostasis and improved insulin sensitivity”.
In the case of tunicamycin, the “increase in GRP78 protein expression as compared to untreated cells” value [1] is reported as ~15 fold.
With `Nc1ncnc2c1ncn2[C@@H]1O[C@H](COP(=O)(O)OP(=O)(O)O)[C@@H](O)[C@H]1O` [ADP, adenosine 5′-diphosphate] the “effect on reduction of G6Pase promoter activity by GRP78 over-expression” value [2] was “could not fully overcome the effect of GRP78 over-expression; also recorded: could still be partially reversed” and the “basal G6Pase-luciferase promoter activity with GRP78 ATPase inhibitor” value [2] was “basal G6Pase-luciferase promoter activity rose (Fig. 6B) to a level comparable to PST activation”.
In the case of `C[C@H](CCC(=O)NCCS(=O)(=O)O)[C@H]1CC[C@H]2[C@@H]3[C@@H](O)C[C@@H]4C[C@H](O)CC[C@]4(C)[C@H]3CC[C@]12C` [TUDCA, tauroursodeoxycholic acid], the “ER stress, glucose homeostasis and insulin sensitivity” value (db/db mice) is listed as “reduced ER stress, with restored glucose homeostasis and improved insulin sensitivity”.
For “Gly297Ser: naturally occurring human PST variant, Gly297Ser in the functionally important carboxyl terminus of the peptide (SEALAVDGAGKPGAEEAQDPEGKGEQEHSQQKEEEEEMAVVPQSLFRG; ends and bridges not checked; UniProt P10645 272-319, looked up, variant G297S)”, the “potency to inhibit cellular glucose uptake” value (cellular glucose uptake) is given as “substantially increasing its potency to inhibit cellular glucose uptake”.
In the case of `N#Cc1ccc(COC[C@H]2O[C@@H](n3c(NCc4ccc(Cl)c(Cl)c4)nc4c(N)ncnc43)[C@H](O)[C@@H]2O)cc1` [VER-155008], the “effect on reduction of G6Pase promoter activity by GRP78 over-expression” value [2] is reported as “could not fully overcome the effect of GRP78 over-expression; also recorded: could still be partially reversed” and the “basal G6Pase-luciferase promoter activity with GRP78 ATPase inhibitor” value [2] is reported as “basal G6Pase-luciferase promoter activity rose (Fig. 6B) to a level comparable to PST activation”.
With insulin the “suppression of PST-induced activation of the G6Pase promoter” value ([2]; insulin 100 nM plus PST 100 nM, HepG2, Fig. 5B) was ~40%.
With `C/C=C(/C)C(=O)O[C@H]1C(C)=C2[C@H]([C@@H]1OC(=O)CCCCCCC)[C@@](C)(OC(C)=O)C[C@H](OC(=O)CCC)[C@@]1(O)[C@H]2OC(=O)[C@@]1(C)O` [thapsigargin] the “increase in GRP78 protein expression as compared to untreated cells” value [1] was ~15 fold.
